According to the NIST ThermoML archive (doi:10.1021/acs.jced.8b00427):
Numbers after ± are expanded uncertainties.

Settings: Liquid, Frequency=4 MHz, Pulse-echo method

Q: With FC(F)(F)/C=C/Cl [(E)-1-chloro-3,3,3-trifluoroprop-1-ene] as the compound, how does the speed of sound (273.14 K, 30070 kPa) read?
A: 936.9 ± 1.2 m/s

Q: What about the speed of sound (273.15 K, 5030 kPa) of the same compound?
A: 815.43 ± 1.1 m/s

Q: What about the speed of sound (273.15 K, 20150 kPa) of the same compound?
A: 892.92 ± 1.1 m/s

Q: And the speed of sound (273.15 K, 25090 kPa)?
A: 915.36 ± 1.1 m/s

Q: And the speed of sound (273.16 K, 190 kPa)?
A: 786.78 ± 1 m/s

Q: What about the speed of sound (273.16 K, 1000 kPa) of the same compound?
A: 791.78 ± 1 m/s

Q: What about the speed of sound (273.16 K, 10050 kPa) of the same compound?
A: 842.75 ± 1.1 m/s

Q: What about the speed of sound (273.16 K, 35030 kPa) of the same compound?
A: 957.33 ± 1.2 m/s

Q: And the speed of sound (283.14 K, 5170 kPa)?
A: 778.28 ± 1 m/s

Q: What about the speed of sound (283.14 K, 10020 kPa) of the same compound?
A: 806.46 ± 1.1 m/s

Q: What about the speed of sound (283.14 K, 24930 kPa) of the same compound?
A: 882.24 ± 1.1 m/s

Q: And the speed of sound (283.14 K, 30260 kPa)?
A: 906.25 ± 1.1 m/s

Q: And the speed of sound (283.15 K, 190 kPa)?
A: 746.74 ± 1 m/s

Q: And the speed of sound (283.16 K, 980 kPa)?
A: 752.01 ± 1 m/s

Q: What about the speed of sound (283.16 K, 20000 kPa) of the same compound?
A: 858.64 ± 1.1 m/s

Q: What about the speed of sound (283.16 K, 34920 kPa) of the same compound?
A: 926.3 ± 1.2 m/s

Q: What about the speed of sound (293.15 K, 170 kPa) of the same compound?
A: 707.09 ± 0.96 m/s

Q: And the speed of sound (293.15 K, 9990 kPa)?
A: 771.05 ± 1 m/s

Q: What about the speed of sound (293.15 K, 20000 kPa) of the same compound?
A: 826.3 ± 1.1 m/s

Q: And the speed of sound (293.15 K, 35000 kPa)?
A: 896.92 ± 1.1 m/s

Q: What about the speed of sound (293.16 K, 1030 kPa) of the same compound?
A: 713.25 ± 0.97 m/s

Q: And the speed of sound (293.16 K, 5090 kPa)?
A: 740.63 ± 0.99 m/s

Q: What about the speed of sound (293.16 K, 30100 kPa) of the same compound?
A: 875.12 ± 1.1 m/s

Q: And the speed of sound (313.14 K, 270 kPa)?
A: 628.5 ± 0.9 m/s

Q: And the speed of sound (313.15 K, 5010 kPa)?
A: 666.72 ± 0.93 m/s

Q: What about the speed of sound (313.15 K, 10000 kPa) of the same compound?
A: 702.15 ± 0.96 m/s

Q: And the speed of sound (313.15 K, 19990 kPa)?
A: 763.58 ± 1 m/s

Q: And the speed of sound (313.15 K, 30050 kPa)?
A: 816.73 ± 1.1 m/s

Q: What about the speed of sound (313.15 K, 34920 kPa) of the same compound?
A: 840.09 ± 1.1 m/s

Q: And the speed of sound (313.16 K, 1180 kPa)?
A: 636.05 ± 0.9 m/s

Q: And the speed of sound (333.14 K, 5010 kPa)?
A: 594.52 ± 0.86 m/s

Q: And the speed of sound (333.14 K, 9980 kPa)?
A: 634.9 ± 0.9 m/s

Q: And the speed of sound (333.15 K, 19990 kPa)?
A: 704.25 ± 0.95 m/s

Q: What about the speed of sound (333.15 K, 29970 kPa) of the same compound?
A: 761.64 ± 1 m/s

Q: And the speed of sound (333.15 K, 35060 kPa)?
A: 787.99 ± 1 m/s

Q: And the speed of sound (353.14 K, 10010 kPa)?
A: 571.03 ± 0.84 m/s

Q: And the speed of sound (353.14 K, 15090 kPa)?
A: 612.03 ± 0.87 m/s

Q: And the speed of sound (353.14 K, 20150 kPa)?
A: 648.34 ± 0.91 m/s

Q: And the speed of sound (353.15 K, 24990 kPa)?
A: 679.91 ± 0.93 m/s

Q: What about the speed of sound (353.15 K, 30000 kPa) of the same compound?
A: 710.32 ± 0.96 m/s

Q: And the speed of sound (353.15 K, 35040 kPa)?
A: 738.23 ± 0.98 m/s
